Data as given in patent publication US20230074885A1, “BORTEZOMIB-LOADED NANOPARTICLES” (The Johns Hopkins University, priority 2020, published 2023).

How the values were obtained:
[1] = test system: patient derived xenograft (PDX) model established from a human primary HCC; experiment: In vivo treatment of patient derived xenograft (PDX) mouse model of liver cancer; set-up: species or system NSG mice
Procedure: In vivo therapeutic effect of BTZ-loaded nanoparticles. The therapeutic effect of BTZ-loaded nanoparticles was assessed using patient derived xenograft (PDX) model. Briefly, fresh human tumor tissue was harvested from HCC patients, then cut in small pieces (3^3 mm^3) and implanted subcutaneously in the right flank of NSG mice. Once tumors grew, a similar process (harvesting tumors from mice, mincing and inserting in new mice) was implemented. Mice at the 5th passage of PDX were utilized in this experiment. After implantation subcutaneously, the tumor is allowed to grow to approximately 1,000 mm^3. Next, mice were randomized to blank nanoparticles and BTZ-loaded nanoparticles with an equivalence of 2.2 mg/kg BTZ. The tumor sizes of mice in different groups were measured through two weeks and were taken as the reflection of therapeutic effect of different formulations.

[2] = cited from earlier work
[3] = test system: primary patient-derived cancer organoid (PDO) cultures from patients with liver cancers; experiment: FDA-approved cancer drugs tested across patient-derived cancer organoid (PDO) cultures; assay type: cell-based, human
Procedure: Thirty-seven primary patient-derived cancer organoid (PDO) cultures have been established from patients with liver cancers (including hepatocellular cancer and cholangiocarcinoma). Food and Drug Administration (FDA)-approved cancer drugs (irrespective of FDA indication) were tested across all 37 PDO cultures.

[4] = Dose escalation test on animal survival; assay type: in vivo, mice
Procedure: Dose escalation test on animal survival following local subcutaneous injection of the 1-month BTZ nanoparticle (BTZ NP) formulation in comparison with free BTZ injection via intratumor injection.
The recommended dose in patients is 1.3 mg/m^2. This dose is also the maximum tolerated dose in patients. […] One of the essential features of BTZ-NP is the ability to release active BTZ gradually. The ability of BTZ-NP to release BTZ slowly by subcutaneous injections was evaluated with increasing doses of BTZ-NP. As shown, a dose of 108 mg/m^2 could be injected without any death in rodents. This dose is approximately 80-fold higher than the dose of the free drug that is sufficient to kill rodents.

CC(C)C[C@H](NC(=O)[C@H](Cc1ccccc1)NC(=O)c1cnccn1)B(O)O [free BTZ, bortezomib]
animal death due to toxicity ([1]; high dose 0.8 mg/kg free BTZ): died 1 day after injection | efficacy in PDX model of liver cancer ([1]; mouse, in vivo): effective | recommended dose / maximum tolerated dose in patients [2]: 1.3 mg/m^2 | effectiveness across PDO lines ([3]; 37 PDO cultures, hepatocellular cancer and cholangiocarcinoma): highly effective across all tested PDO lines | effectiveness compared with currently approved FDA drugs for unresectable liver cancers ([3]; across all 37 PDO lines): more effective than any of the currently approved FDA drugs | cause of death ([4]; 1 mg/kg free BTZ, intra-tumor injection): liver failure | Survival ([4]; 1 mg/kg free BTZ, single intra-tumor injection, 12.5 μg/dose, 1.5 mg/m^2): 0/5 | lethal dose in rodent model ([4]; intratumoral injection): 1.5 mg/m^2
